pIC50: −log10 of the molar value.
Molecular target: T1, Human sEH (hsEH) (Homo sapiens, UniProt P34913)
T1 construct: purchased Cayman Chemicals
T1 sequence (P34913 1-555): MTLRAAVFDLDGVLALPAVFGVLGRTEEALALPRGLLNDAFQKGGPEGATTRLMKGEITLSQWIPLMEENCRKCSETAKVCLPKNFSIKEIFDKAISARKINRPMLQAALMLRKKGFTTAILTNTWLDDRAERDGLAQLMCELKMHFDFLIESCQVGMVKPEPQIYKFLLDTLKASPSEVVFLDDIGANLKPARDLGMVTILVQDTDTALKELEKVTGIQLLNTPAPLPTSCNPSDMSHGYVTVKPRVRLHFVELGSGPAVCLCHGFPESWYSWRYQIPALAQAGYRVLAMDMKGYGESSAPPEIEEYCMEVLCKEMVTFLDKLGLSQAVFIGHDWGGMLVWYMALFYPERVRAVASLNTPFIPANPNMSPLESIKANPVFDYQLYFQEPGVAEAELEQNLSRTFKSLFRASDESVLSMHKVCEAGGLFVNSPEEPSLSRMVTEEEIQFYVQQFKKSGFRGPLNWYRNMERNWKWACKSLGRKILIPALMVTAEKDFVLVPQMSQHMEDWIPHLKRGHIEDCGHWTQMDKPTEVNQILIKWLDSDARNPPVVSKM
Experiment: fluorescence-based sEH biochemical inhibition assay (PHOME substrate)
Details: Table 1; hsEH 5 nM, PHOME 50 μM, 30° C.
Procedure: The benzimidazole-based compounds synthesized according to Example 1 were measured for activity. Using a fluorescence-based sEH biochemical inhibition assay, the IC50 value was measured for each benzimidazole-based compound. Human sEH (hsEH) and its substrate PHOME were purchased from Cayman Chemicals. IC50 values of hsEH inhibitors were determined by fluorescence. IC50 is defined as the concentration of the inhibitor that blocks 50% of the enzymatic activity. To a 96-well plate containing 10 μL enzyme (5 nM in water), 60 μL of H2O and 10 μL BisTris-HCl buffer (25 mM, pH 7.0) were added inhibitors with different concentrations. The mixture was incubated for 5 min at 30° C. prior to addition of 10 μL of PHOME substrate (50 μM). Fluorescence were measured at 30° C. with an excitation wavelength of 330 nm and an emission wavelength of 465 nm using a BioTek H1 plate reader. The IC50 values were calculated by non-linear regression fitting. The curve was generated from at least three separate runs, each in duplicates. Results are given as means and standard deviations. In Table 1, an IC50 value less than or equal to 1 μM is indicated as an “A.” an IC50 value from greater than 1 μM to less than 10 μM is indicated as a “B′” and an IC50 value of greater than or equal to 10 μM is indicated as a “C.”
Additional benzimidazole-based compounds as described herein were measured for activity according to the procedure outlined in Example 2. Briefly, using a fluorescence-based sEH biochemical inhibition assay, the IC50 value was measured for each benzimidazole-based compound.

Row | Structure (SMILES) | pIC50
1 | O=C(Cc1ccccc1)Nc1nc2ccccc2[nH]1 [Compound 13, N-(1H-benzo[d]imidazol-2-yl)-2-phenylacetamide] | ≤ 5.00
2 | Fc1cc2nc(-c3ccc(-c4nnco4)cc3)[nH]c2cc1F [Compound 58, 2-(4-(5,6-difluoro-1H-benzo[d]imidazol-2-yl)phenyl)-1,3,4-oxadiazole] | ≤ 5.00
3 | Cc1cc2nc(-c3ccnn3C)[nH]c2cc1C [Compound 31, 5,6-dimethyl-2-(1-methyl-1H-pyrazol-5-yl)-1H-benzo[d]imidazole] | ≤ 5.00
4 | Fc1cc2nc(-c3ccc(-c4ccncc4)cc3)[nH]c2cc1F [Compound 59, 5,6-difluoro-2-(4-(pyridin-4-yl)phenyl)-1H-benzo[d]imidazole] | 5.00 to 6.00
5 | N[C@@H](c1ccccc1)c1nc2cc(F)c(F)cc2[nH]1 [Compound 1, (S)-(5,6-difluoro-1λ^2-benzo[d]imidazol-2-yl)(phenyl)methanamine] | ≤ 5.00
6 | N#Cc1ccc(-c2nc3cc(F)c(F)cc3[nH]2)cc1 [Compound 54, 4-(5,6-difluoro-1H-benzo[d]imidazol-2-yl)benzonitrile] | ≥ 6.00
7 | Fc1cc2nc(-c3ccc(C(F)(F)F)cc3)[nH]c2cc1F [Compound 16, 5,6-difluoro-2-(4-(trifluoromethyl)phenyl)-1H-benzo[d]imidazole] | ≥ 6.00
8 | Fc1ccc2[nH]c(-c3ccc(-c4ccccc4)cc3)nc2c1F [Compound 49, 2-([1,1′-biphenyl]-4-yl)-4,5-difluoro-1H-benzo[d]imidazole] | ≤ 5.00
9 | COC(=O)c1ccc(-c2nc3cc(F)c(F)cc3[nH]2)cc1 [Compound 57, Methyl 4-(5,6-difluoro-1H-benzo[d]imidazol-2-yl)benzoate] | ≤ 5.00
10 | FC(F)(F)c1ccc(-c2nc3cc(Cl)c(Cl)cc3[nH]2)cc1 [Compound 34, 5,6-dichloro-2-(4-(trifluoromethyl)phenyl)-1H-benzo[d]imidazole] | 5.00 to 6.00
11 | C[C@H](N)c1nc2cc(F)c(F)cc2[nH]1 [Compound 2, (S)-1-(5,6-difluoro-1λ^2-benzo[d]imidazol-2-yl)ethan-1-amine] | ≤ 5.00
12 | CCc1ccc(-c2nc3ccccc3[nH]2)cc1 [Compound 37, 2-(4-ethylphenyl)-1H-benzo[d]imidazole] | 5.00 to 6.00
13 | Fc1ccc2[nH]c(-c3ccc(C(F)(F)F)cc3)nc2c1F [Compound 48, 4,5-difluoro-2-(4-(trifluoromethyl)phenyl)-1H-benzo[d]imidazole] | ≥ 6.00
14 | O=C(O)c1ccc(-c2nc3cc(F)c(F)cc3[nH]2)cc1 [Compound 56] | ≥ 6.00
15 | Fc1cc2nc(-c3ccc(Oc4ccccc4)cc3)[nH]c2cc1F [Compound 53, 5,6-difluoro-2-(4-phenoxyphenyl)-1H-benzo[d]imidazole] | ≥ 6.00
16 | Fc1cc2nc(-c3ccnc(C(F)(F)F)c3)[nH]c2cc1F [Compound 50, 5,6-difluoro-2-(2-(trifluoromethyl)pyridin-4-yl)-1H-benzo[d]imidazole] | 5.00 to 6.00
17 | Fc1cc2nc(-c3ccc(-c4nnn[nH]4)cc3)[nH]c2cc1F [Compound 61, 2-(4-(1H-tetrazol-5-yl)phenyl)-5,6-difluoro-1H-benzo[d]imidazole] | ≤ 5.00
18 | Fc1cc2nc(-c3ccc(-c4ccccc4)cc3)[nH]c2cc1Br [Compound 45, 2-([1,1′-biphenyl]-4-yl)-6-bromo-5-fluoro-1H-benzo[d]imidazole] | ≥ 6.00
19 | Fc1cc2nc(-c3ccoc3)[nH]c2cc1F [Compound 32, 5,6-difluoro-2-(furan-3-yl)-1H-benzo[d]imidazole] | ≤ 5.00
20 | CCc1ccc(-c2nc3cc(F)c(F)cc3[nH]2)cc1 [Compound 35, 2-(4-ethylphenyl)-5,6-difluoro-1H-benzo[d]imidazole imidazole] | ≥ 6.00
21 | Cc1noc(-c2ccc(-c3nc4cc(F)c(F)cc4[nH]3)cc2)n1 [Compound 60, 5-(4-(5,6-difluoro-1H-benzo[d]imidazol-2-yl)phenyl)-3-methyl-1,2,4-oxadiazole] | ≤ 5.00
22 | CCc1ccc(-c2nc3cc(Br)c(Br)cc3[nH]2)cc1 [Compound 39, 5,6-dibromo-2-(4-ethylphenyl)-1H-benzo[d]imidazole] | 5.00 to 6.00
23 | Cc1cc2nc(C3CCN(C)CC3)[nH]c2cc1C [Compound 18, 5,6-dimethyl-2-(1-methylpiperidin-4-yl)-1H-benzo[d]imidazole] | ≤ 5.00
24 | c1ccc(-c2nc3ccccc3[nH]2)c(-c2nc3ccccc3[nH]2)c1 [Compound 15, 1,2-bis(1H-benzo[d]imidazol-2-yl)benzene] | ≤ 5.00
25 | CC(=O)Nc1ccc(-c2nc3cc(F)c(F)cc3[nH]2)cc1 [Compound 47, N-(4-(5,6-difluoro-1H-benzo[d]imidazol-2-yl)phenyl)acetamide] | ≤ 5.00

Further lines, results first:

Row | pIC50 | Structure (SMILES)
26 | ≥ 6.00 | Cc1cc2nc(-c3ccc(C(C)(C)C)cc3)[nH]c2cc1C [Compound 26, 2-(4-(tert-butyl)phenyl)-5,6-dimethyl-1H-benzo[d]imidazole]
27 | ≤ 5.00 | Cc1cc2nc(Oc3ccc(Br)cc3)[nH]c2cc1C [Compound 11, 2-(4-bromophenoxy)-5,6-dimethyl-1H-benzo[d]imidazole]
28 | ≥ 6.00 | COc1ccc(-c2nc3cc(F)c(F)cc3[nH]2)cc1 [Compound 46, 5,6-difluoro-2-(4-methoxyphenyl)-1H-benzo[d]imidazole]
29 | 5.00 to 6.00 | Cc1cc2nc(Nc3ccc(C(C)(C)C)cc3)[nH]c2cc1C [Compound 6, N-(4-(tert-butyl)phenyl)-5,6-dimethyl-1H-benzo[d]imidazol-2-amine]
30 | ≥ 6.00 | Cc1cc2nc(-c3ccc(-c4ccccc4)cc3)[nH]c2cc1C [Compound 20, 2-([1,1′-biphenyl]-4-yl)-5,6-dimethyl-1H-benzo[d]imidazole]
31 | ≥ 6.00 | Cc1ccc2[nH]c(-c3ccc(C(F)(F)F)cc3)nc2c1C [Compound 41, 4,5-dimethyl-2-(4-(trifluoromethyl)phenyl)-1H-benzo[d]imidazole]
32 | ≤ 5.00 | Cc1cc2nc(-c3ccc(=O)[nH]c3)[nH]c2cc1C [Compound 23, 5-(5,6-dimethyl-1H-benzo[d]imidazol-2-yl)pyridin-2(1H)-one]
33 | ≤ 5.00 | Cc1cc2nc(Oc3ccc(OC(F)(F)F)cc3)[nH]c2cc1C [Compound 12, 5,6-dimethyl-2-(4-(trifluoromethoxy)phenoxy)-1H-benzo[d]imidazole]
34 | ≥ 6.00 | Fc1cc2nc(-c3ccc(C(F)(F)F)cc3)[nH]c2cc1Br [Compound 44, 6-bromo-5-fluoro-2-(4-(trifluoromethyl)phenyl)-1H-benzo[d]imidazole]
35 | 5.00 to 6.00 | COc1ccc(Nc2nc3cc(C)c(C)cc3[nH]2)cc1OC [Compound 7, N-(3,4-dimethoxyphenyl)-5,6-dimethyl-1H-benzo[d]imidazol-2-amine]
36 | 5.00 to 6.00 | Cc1cc2nc(-c3ccc(F)cn3)[nH]c2cc1C [Compound 22, 2-(5-fluoropyridin-2-yl)-5,6-dimethyl-1H-benzo[d]imidazole]
37 | ≥ 6.00 | Fc1ccc(Oc2ccc(-c3nc4cc(F)c(F)cc4[nH]3)cc2)cc1 [Compound 52, 5,6-difluoro-2-(4-(4-fluorophenoxy)phenyl)-1H-benzo[d]imidazole]
38 | ≥ 6.00 | Fc1cc2nc(-c3ccc(C(F)(F)F)cc3)[nH]c2cc1Cl [Compound 43, 6-chloro-5-fluoro-2-(4-(trifluoromethyl)phenyl)-1H-benzo[d]imidazole]
